Where “and” joins values, the source holds several entries; their conditions need not be identical. Identical values can stand only once. Positions of bridges follow the written chain, without caps; N, C: chain ends. Residues, ends and D or L forms follow the SMILES beside them.
Tests used:
[1] = test system: endothelium-intact aortic rings (NPR-C mediated); experiment: Aortic ring relaxation, endothelium-intact rings pre-contracted with 40 mM KCl (Example 3); design: species or system rat; details: endothelium-intact rat aortas pre-contracted with 40 mM KCl; peptide 0.1 μM
Experimental: (§1) Male Sprague Dawley rats were killed and the descending thoracic aorta rapidly removed and flushed with physiological solution. After being cleared of adhering fat and connective tissue, 5 mm rings were mounted under 10 g resting tension, between two stainless steel hooks, in organ baths (37° C.) containing carbogenated (95% O2 and 5% CO2) physiological salt solution of the following composition (mM): NaCl, 118.4; NaHCO3, 25; glucose, 11; KCl, 4.7; MgSO4, 1.2; KH2PO4, 1.2 and CaCl2, 2.5. The lower hook was attached to a tissue holder and the upper hook to a force displacement transducer (Grass FTO3). Where indicated endothelial cells were removed by gentle rubbing of the intimal surface with a wire. To confirm the presence or absence of endothelial cells, tissues were precontracted with a sub-maximal concentration of phenylephrine (0.3 μM) and the response to acetylcholine (ACh, 10 μM) observed. Ach-induced relaxation greater than 80% of maximum indicated the presence of endothelium; whereas Ach-induced relaxation less than 10% indicated the absence of endothelium. Ring preparations under resting tension were conditioned by two contraction/relaxation cycles with 40 mM KCl, contracted by a third application of 40 mM KCl and then relaxed with different doses of the venom peptides. Responses were expressed as a percentage relaxation of the precontraction by KCl.

[2] = molecular target: T1, Natriuretic Peptide Receptor-A (NPR-A) signaling in MDCK cells (Canis lupus familiaris, UniProt A0A8I3MHU3); assay type: cell-based, canine; details: stimulation of cGMP accumulation in MDCK cells; for EC50: read-out: EC50 (M) ± Standard Error
T1 sequence (A0A8I3MHU3 32-1060): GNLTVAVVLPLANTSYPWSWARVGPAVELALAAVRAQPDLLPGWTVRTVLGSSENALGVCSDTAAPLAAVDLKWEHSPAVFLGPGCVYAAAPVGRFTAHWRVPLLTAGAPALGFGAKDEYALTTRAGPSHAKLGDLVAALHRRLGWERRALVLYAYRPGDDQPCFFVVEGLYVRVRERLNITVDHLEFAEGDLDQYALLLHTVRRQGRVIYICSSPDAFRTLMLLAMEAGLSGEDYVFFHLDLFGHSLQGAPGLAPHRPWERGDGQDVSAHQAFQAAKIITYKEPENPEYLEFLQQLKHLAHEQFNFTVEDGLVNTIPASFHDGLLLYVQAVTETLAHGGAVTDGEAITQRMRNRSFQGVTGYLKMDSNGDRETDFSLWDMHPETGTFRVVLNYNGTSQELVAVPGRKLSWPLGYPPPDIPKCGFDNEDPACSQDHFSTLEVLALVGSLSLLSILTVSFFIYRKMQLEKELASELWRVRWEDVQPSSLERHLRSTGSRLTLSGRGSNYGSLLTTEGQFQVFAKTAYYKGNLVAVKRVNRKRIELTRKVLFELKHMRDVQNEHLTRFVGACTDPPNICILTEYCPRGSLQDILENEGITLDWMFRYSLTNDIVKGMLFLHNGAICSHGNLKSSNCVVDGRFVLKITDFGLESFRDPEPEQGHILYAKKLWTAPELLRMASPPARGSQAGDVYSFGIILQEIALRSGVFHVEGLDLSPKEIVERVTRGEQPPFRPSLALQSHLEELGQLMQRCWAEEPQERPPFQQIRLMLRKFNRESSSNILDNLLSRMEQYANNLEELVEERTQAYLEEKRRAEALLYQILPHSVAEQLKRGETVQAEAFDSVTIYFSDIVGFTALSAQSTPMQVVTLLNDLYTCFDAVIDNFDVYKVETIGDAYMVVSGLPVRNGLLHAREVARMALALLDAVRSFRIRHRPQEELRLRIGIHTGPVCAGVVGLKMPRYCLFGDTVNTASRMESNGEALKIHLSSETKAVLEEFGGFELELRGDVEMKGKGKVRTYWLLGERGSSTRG

[3] = test system: endothelium-denuded aortic rings (GC-A mediated); experiment: Aortic ring relaxation, endothelium-denuded rings pre-contracted with 40 mM KCl (Example 3); design: species or system rat; details: endothelium-denuded rat aortas pre-contracted with 40 mM KCl; peptide 0.1 μM
Experimental: as §1

conscious rabbits = experiment: Blood pressure and heart rate in conscious rabbits, intravenous infusion dose-response (Example 8); design: Systolic BP, mean difference / Diastolic BP, mean difference / Mean BP, mean difference / HR, mean difference: dose or concentration left out as unconfirmed; details: for Diastolic BP, mean difference from control / HR, mean difference from control / Mean BP, mean difference from control / Systolic BP, mean difference from control: 45 min
Plasmin = molecular target: T2, Plasmin (Homo sapiens, UniProt P00747); experiment: Stability to enzymatic degradation by plasmin (Examples 7, 16); assay type: in vitro ADME; details: plasmin, 37° C.; for half-life at 125 μM: plasmin in Tris/HCl-NaCl buffer, read-out: HalfLife in plasmin
T2 construct: with 500 ng Endopeptidase (NEP) or 10 μg Plasmin
Experimental: The incubation buffer contained 100 mM Tris/HCl and 150 mM NaCl and the pH was adjusted to 7.2-7.4. In each assay, 100 μl of peptide [500 μM] was incubated with 300 μl buffer (with 500 ng Endopeptidase (NEP) or 10 μg Plasmin) at 37° C. 50 μl aliquots were taken at times 5 min, 30 min, 60 min, 90 min, 180 min and 24 h. The reaction was quenched by heating to 100° C. for 4 min and the remaining peptide concentrations measured by RP-HPLC. Note that the levels of Plasmin required to degrade these peptides was several thousands time the levels present in human plasma.
The stability of TDT and was investigated using the same enzymatic degradation assays (NEP, plasmin, pepsin) disclosed in Example 7. […] It is also evident that the increased NEP stability cannot be explained by the length of the tail region alone as the NEP cleavage site residues at the N-terminal end of the loop region.

[4] = after 1 hour recovery period, Table 10A
[5] = average of the 3 doses 1.0, 2.0, 4.0 μg/kg/min
[6] = Table 9B, average of doses 1, 2, 4

T2 sequence (P00747 97-580 partner limits assumed, species assumed): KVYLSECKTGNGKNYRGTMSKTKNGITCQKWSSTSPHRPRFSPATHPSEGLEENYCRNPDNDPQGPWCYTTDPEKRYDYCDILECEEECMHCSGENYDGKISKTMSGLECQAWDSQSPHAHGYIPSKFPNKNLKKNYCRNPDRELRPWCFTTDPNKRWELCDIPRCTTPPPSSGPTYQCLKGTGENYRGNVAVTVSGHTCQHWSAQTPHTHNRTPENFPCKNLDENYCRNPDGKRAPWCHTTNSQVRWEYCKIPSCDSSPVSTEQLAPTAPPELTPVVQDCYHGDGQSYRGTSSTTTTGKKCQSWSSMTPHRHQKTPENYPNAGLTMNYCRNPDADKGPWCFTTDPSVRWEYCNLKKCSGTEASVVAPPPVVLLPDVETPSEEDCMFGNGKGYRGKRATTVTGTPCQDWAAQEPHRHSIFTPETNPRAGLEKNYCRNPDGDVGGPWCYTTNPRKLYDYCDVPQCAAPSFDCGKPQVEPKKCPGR
T2 sequence (P00747 581-810 limits assumed, species assumed): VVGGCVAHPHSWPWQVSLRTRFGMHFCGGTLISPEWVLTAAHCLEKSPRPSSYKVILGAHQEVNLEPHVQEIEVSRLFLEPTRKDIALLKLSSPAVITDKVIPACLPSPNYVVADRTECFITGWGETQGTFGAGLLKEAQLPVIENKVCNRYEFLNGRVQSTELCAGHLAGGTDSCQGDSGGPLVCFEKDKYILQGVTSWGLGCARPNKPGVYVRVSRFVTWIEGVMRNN

## CC[C@H](C)[C@H](NC(=O)[C@H](CCCCN)NC(=O)[C@H](CO)NC(=O)[C@H](CC(=O)O)NC(=O)[C@@H](N)CO)C(=O)NCC(=O)N[C@@H](CC(N)=O)C(=O)NCC(=O)N[C@H]1CSSC[C@@H](C(=O)N[C@@H](CC(N)=O)C(=O)N[C@@H](CCCNC(=N)N)C(=O)N[C@H](C(=O)N[C@@H](CCSC)C(=O)N[C@@H](CCC(N)=O)C(=O)N[C@@H](CC(N)=O)C(=O)N2CCC[C@H]2C(=O)N2CCC[C@H]2C(=O)N[C@@H](CCCCN)C(=O)N[C@@H](CCCCN)C(=O)N[C@@H](Cc2ccccc2)C(=O)N[C@@H](CO)C(=O)NCC(=O)N[C@@H](CCC(=O)O)C(=O)O)[C@@H](C)CC)NC(=O)CNC(=O)[C@H](CC(C)C)NC(=O)CNC(=O)[C@H](CO)NC(=O)[C@H](C(C)C)NC(=O)[C@H](CO)NC(=O)CNC(=O)[C@H]([C@@H](C)CC)NC(=O)[C@H](CCCNC(=N)N)NC(=O)[C@H](CC(=O)O)NC(=O)[C@H](CC(C)C)NC(=O)[C@@H]2CCCN2C(=O)[C@H](Cc2ccccc2)NC(=O)CNC(=O)[C@H](Cc2ccccc2)NC1=O [TNPc] (H-SDSKIGNGCFGFPLDRIGSVSGLGCNRIMQNPPKKFSGE-OH; disulfide 9-25)
[1]
  percentage relaxation of the precontraction by KCl: ~100%
[2]
  −Log10 EC50 (pEC50) ± Standard Error: 6.928 ± 0.1122
  EC50: 1.84e-07 M
[3]
  percentage relaxation of the precontraction by KCl: ~100%
Conscious rabbits; 2 hours after infusion
  recovery of MAP, in words: remained suppressed for 2 hours
Conscious rabbits; Table 10B
  MAP at final dose: 58.9 mm Hg and 61.3 mm Hg
Conscious rabbits; [4]
  Recovery (MAP): 56.6 mm Hg and 58.8 mm Hg
Conscious rabbits; after a 2 hour recovery period, Table 10B
  Recovery (MAP): 58.8 mm Hg and 66.1 mm Hg
Conscious rabbits; [5]
  Diastolic BP, Average Response SED: −12.5 ± 0.6 mmHg
  HR, Average Response SED: 4.7 ± 3.8 bpm
  Mean BP (MAP), Average Response SED: −14.9±0.7 mmHg
  Systolic BP, Average Response SED: −13.2 ± 0.8 mmHg
Conscious rabbits; bolus injection
  effective half life compared to BNP: 3 fold
Conscious rabbits; bolus injection of 0.24 mg/kg TNPc or equivalent molar dose of BNP
  time taken to recover to 50% of the peak response: 225 min
Conscious rabbits; highest dose, Table 10A
  MAP at final dose: 56.1 mm Hg and 58.9 mm Hg
Conscious rabbits; i.v. infusion 1.0 μg/kg/min
  Diastolic BP, mean difference from control: −10.0 mmHg
  HR, mean difference from control: −3.5 bpm
  Mean BP, mean difference from control: −11.0 mmHg
  Systolic BP, mean difference from control: −9.1 mmHg
Conscious rabbits; i.v. infusion 2.0 μg/kg/min
  Diastolic BP, mean difference from control: −14.7 mmHg
  HR, mean difference from control: 3.7 bpm
  Mean BP, mean difference from control: −17.7 mmHg
  Systolic BP, mean difference from control: −15.6 mmHg
Conscious rabbits; i.v. infusion 4.0 μg/kg/min
  Diastolic BP, mean difference from control: −12.8 mmHg
  HR, mean difference from control: 13.8 bpm
  Mean BP, mean difference from control: −15.9 mmHg
  Systolic BP, mean difference from control: −14.9 mmHg
Conscious rabbits; one hour after the end of infusion
  recovery of MAP from the hypotension, in words: MAP had not changed
Plasmin
  half-life at 125 μM: 23.6 min
  K (one phase exponential decay, best fit values): 0.02935
  PLATEAU (one phase exponential decay, best fit values): 0.1128
  SPAN (one phase exponential decay, best fit values): 0.8454

## CC[C@H](C)[C@@H]1NC(=O)[C@H](CCCNC(=N)N)NC(=O)[C@H](CC(=O)O)NC(=O)[C@H](CCSC)NC(=O)[C@H](CCCNC(=N)N)NC(=O)CNC(=O)CNC(=O)[C@H](Cc2ccccc2)NC(=O)[C@@H](NC(=O)[C@H](CO)NC(=O)[C@H](CO)NC(=O)[C@H](CCCNC(=N)N)NC(=O)[C@H](CCCNC(=N)N)NC(=O)[C@H](CC(C)C)NC(=O)[C@@H](N)CO)CSSC[C@@H](C(=O)N[C@@H](CC(N)=O)C(=O)N[C@@H](CO)C(=O)N[C@@H](Cc2ccccc2)C(=O)N[C@@H](CCCNC(=N)N)C(=O)N[C@@H](Cc2ccc(O)cc2)C(=O)O)NC(=O)CNC(=O)[C@H](CC(C)C)NC(=O)CNC(=O)[C@H](CO)NC(=O)[C@H](CCC(N)=O)NC(=O)[C@H](C)NC(=O)CNC1=O [hANP, reference compound]
[1]
  percentage relaxation of the precontraction by KCl: ~100%
[2]
  −Log10 EC50 (pEC50) ± Standard Error: 8.792 ± 0.2718
  EC50: 1.64e-08 M
[3]
  percentage relaxation of the precontraction by KCl: ~100%
Conscious rabbits; Table 9B, Dose 1
  Diastolic BP, mean difference: −9.7 mmHg
  HR, mean difference: 17 bpm
  Mean BP, mean difference: −13.1 mmHg
  Systolic BP, mean difference: −10.6 mmHg
Conscious rabbits; Table 9B, Dose 2
  Diastolic BP, mean difference: −12.3 mmHg
  HR, mean difference: 19 bpm
  Mean BP, mean difference: −15.7 mmHg
  Systolic BP, mean difference: −13.0 mmHg
Conscious rabbits; Table 9B, Dose 4
  Diastolic BP, mean difference: −14.4 mmHg
  HR, mean difference: 9 bpm
  Mean BP, mean difference: −18.5 mmHg
  Systolic BP, mean difference: −14.5 mmHg
Conscious rabbits; [6]
  Diastolic BP, Average Response SED: −12.1 ± 0.8 mmHg
  HR, Average Response SED: 15 ± 3 bpm
  Systolic BP, Average Response SED: −12.7 ± 0.9 mmHg
Conscious rabbits; [4]
  Recovery (MAP): 59.2 mm Hg
Conscious rabbits; after 1 hour recovery period, Table 10A, listed as WT-hANP
  Recovery Delta SED (MAP): 5.0±1.2 mm Hg
Conscious rabbits; [5]
  Diastolic BP, Average Response SED: −12.1 ± 0.8 mmHg
  HR, Average Response SED: 15.1 ± 3.2 bpm
  Systolic BP, Average Response SED: −12.7 ± 0.9 mmHg
Conscious rabbits; highest dose, Table 10A
  MAP at final dose: 54.2 mm Hg
Conscious rabbits; highest dose, Table 10A, groups 1, 2A and 3
  Treatment Effect, change of mean blood pressure during the infusion: −18.5 mm Hg
Conscious rabbits; i.v. infusion 1.0 μg/kg/min
  Diastolic BP, mean difference from control: −9.7 mmHg
  HR, mean difference from control: 17.1 bpm
  Mean BP, mean difference from control: −13.1 mmHg
  Systolic BP, mean difference from control: −10.6 mmHg
Conscious rabbits; i.v. infusion 2.0 μg/kg/min
  Diastolic BP, mean difference from control: −12.3 mmHg
  HR, mean difference from control: 19.0 bpm
  Mean BP, mean difference from control: −15.7 mmHg
  Systolic BP, mean difference from control: −13.0 mmHg
Conscious rabbits; i.v. infusion 4.0 μg/kg/min
  Diastolic BP, mean difference from control: −14.4 mmHg
  HR, mean difference from control: 9.0 bpm
  Mean BP, mean difference from control: −18.5 mmHg
  Systolic BP, mean difference from control: −14.5 mmHg
Plasmin
  half-life at 125 μM: 2.03 min
  K (one phase exponential decay, best fit values): 0.3413
  PLATEAU (one phase exponential decay, best fit values): 0.04207
  SPAN (one phase exponential decay, best fit values): 0.9579

Reference: patent US8058242B2, “Chimeric proteins with natriuretic activity” (The University of Queensland, priority 2004, dated 2011)
